Results from PubChem BioAssay (NCI).
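These data come from cells grown in 96-well plates and exposed to compound for 48 hours at five concentrations. At the TGI there is no net growth.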

What was measured:
Assay in all cases: NCI tumour cell line growth inhibition, 48 h
[1] = tested on: 786-0 renal
[2] = tested on: ACHN renal
[3] = tested on: DU-145 prostate
[4] = tested on: HOP-62 NSCLC
[5] = tested on: HS 578T breast
[6] = tested on: IGROV1 ovarian
[7] = tested on: MDA-MB-435
[8] = tested on: SK-MEL-2 melanoma
[9] = tested on: UACC-257 melanoma
[10] = tested on: UO-31 renal

| Compound | TGI [1] [µM] | TGI [2] [µM] | TGI [3] [µM] | TGI [4] [µM] | TGI [5] [µM] | TGI [6] [µM] | TGI [7] [µM] | TGI [8] [µM] | TGI [9] [µM] | TGI [10] [µM] |
| --- | --- | --- | --- | --- | --- | --- | --- | --- | --- | --- |
| O=C(N/N=C\c1ccc([N+](=O)[O-])cc1)Nc1cccc2ccccc12 | 29.1 | > 100 | > 100 | 22.5 | 32 | > 100 | > 100 | 23.9 | > 100 | > 79.8 |
| CC1(C)C(=O)C2(OS(=O)(=O)C(F)(F)F)CCC1C2 (stereo not given) | > 100 | > 100 | > 100 | > 100 | > 100 | > 100 | > 100 | > 100 | > 100 | > 100 |
| CC1C(c2ccc3c(c2)OCO3)c2cc3c(cc2OC1N1CCCCC1)OCO3 (stereo not given) | > 100 | > 100 | > 100 | > 100 | > 100 | > 100 | 62.8 | > 100 | > 100 | > 100 |
| NCCCc1c(-c2ccccc2)nc(N)[nH]c1=O | > 100 | > 100 | > 100 | > 100 | > 100 | > 100 | > 100 | > 100 | > 100 | > 100 |
| COc1ccc(CCCC(=O)O)c(C)c1 | > 100 | > 100 | 56.6 | 75 | > 100 | > 100 | > 100 | > 100 | > 100 | > 100 |
| CN(C)CCNC(=O)c1ccc(NCCCN(C)CCCNc2ccc(C(=O)NCCN(C)C)c3[nH]c4ccc([N+](=O)[O-])cc4c(=O)c23)c2c(=O)c3cc([N+](=O)[O-])ccc3[nH]c12 | 1.14 | 1.5 | 0.641 | 1.92 | > 100 | 0.389 | 0.328 | 0.382 | 1.62 | 2.01 |
| CCOC(=O)COc1c(OC)cc(C2C3=C(COC3=O)Oc3cc4c(cc32)OCO4)cc1OC (stereo not given) | 15.5 | > 45.8 | > 29.1 | > 100 | > 57.1 | 33.7 | 0.89 | > 100 | > 100 | > 100 |
| N#CC(N=Nc1ccccc1)c1nc2ccccc2o1 (stereo not given) | 45.5 | 56.4 | 72.4 | 39 | 66.8 | 42.9 | > 100 | 70.5 | > 100 | > 100 |
| CSc1nc(O)c(/C=C2\C=Nc3ccccc32)[nH]1 | > 100 | > 100 | > 100 | > 100 | > 100 | > 100 | > 100 | > 100 | > 100 | > 100 |
| Cc1ccc(/C=N/NC2=NCCN2)s1 | > 100 | > 100 | > 100 | > 100 | > 100 | > 100 | > 100 | > 100 | > 100 | > 100 |
| COC1(OC)C2(Cl)C(Cl)=C(Cl)C1(Cl)C1COCC12 (stereo not given) | > 100 | > 100 | > 100 | > 100 | > 100 | > 100 | > 69.4 | > 100 | > 100 | > 100 |
| CCOP(=O)(OCC)/C(C#N)=C/c1cccn1N(C)C | > 100 | > 100 | > 100 | > 100 | > 100 | > 100 | > 100 | > 100 | > 100 | > 100 |
| Cc1ccc(O)c(-c2csc(NCN3CCN(CNc4nc(-c5cc(C)ccc5O)cs4)CC3)n2)c1 | > 100 | > 100 | > 100 | > 100 | > 100 | > 100 | > 100 | > 100 | > 100 | > 100 |
| CCOC(=O)/C=C(\N=P(c1ccccc1)(c1ccccc1)c1ccccc1)C(F)(F)C(F)(F)C(F)(F)C(F)(F)C(F)(F)F | > 100 | > 100 | > 100 | > 100 | > 100 | > 100 | > 100 | > 100 | > 100 | > 100 |
| O[C@H]1[C@H](O)[C@H](O)CN2CCC[C@@H](O)[C@H]12 | > 100 | > 100 | > 100 | > 100 | > 100 | > 100 | > 100 | > 100 | > 100 | > 100 |
